According to US20250090576A1, “METHODS FOR TREATING NONTUBERCULOUS MYCOBACTERIA DISEASES” (Microbion Corporation, priority 2022, published 2025):
≈ marks a conversion by molar mass, not a printed value. Like-named read-outs stand apart in the source and are kept apart here.

Legend:
[1] = test system: CF patient strain DNA00703; experiment: MIC broth dilution, growth by turbidity/OD 595 nm; type: cell-based, M. abscessus; conditions: for MIC: Mycobacteroides abscessus
Method: (§1) Mycobacteria strains were used to determine MICs of BisEDT and amikacin. Strains included cystic fibrosis patient isolates from National Jewish Hospital. A range of high dose to low dose of antibiotics was used to determine bacteria susceptibility. M. avium strain 104, M. avium strain 3388, and CF patient strain DNA00133 were grown to log phase (7 days) while M. abscessus strain 19977, CF patient strain DNA00703, and CF patient strain DNA01715 achieved log phase (4 days) on 7H10 middlebrook media plates supplemented with 10% OADC (Oleic acid, Albumin, Dextrose, Catalase). […] For BisEDT, two types of compound physical states were tested. First, BisEDT was solubilized in DMSO (furthermore labeled soluble BisEDT). Second, BisEDT was made in suspension to mimic in vivo studies (furthermore labeled insoluble BisEDT). […] Control tubes containing no antibiotics were also included for each antibiotic tested. Inoculums of […] bacteria for each strain was measured with optical density (O.D.) at 595 nm. 10 μl of these inoculums were added to each antibiotic tube and incubated in a shaking incubator at 37° C. and 200 rpm. Slow growing stains were measured for growth after 10 days incubation while fast growing strains were incubated for 5 days. After incubation, 100 μl from each tube was pulled and placed in a 96-well plate for O.D. reading. Turbidity determined sensitive, intermediate, or resistant bacteria.

[2] = test system: CF patient strain DNA01715; experiment: MIC broth dilution, growth by turbidity/OD 595 nm; type: cell-based, M. abscessus; conditions: for MIC: Mycobacteroides abscessus
Method: as §1

[3] = test system: M. abscessus cystic fibrosis patient strain 00703 in THP-1 macrophages; experiment: Mycobacterial survival (CFU) in infected THP-1 macrophages; type: cell-based; conditions: CF patient strain 00703; after 3 days; drugs at MIC
Method: (§2) THP-1 macrophages were differentiated with 50 ng/ml PMA for 24 hours, followed by 24 hours in media prior to infection. Differentiated THP-1 macrophages were either infected with M. avium strains or M. abscessus strains for 1 hour with an multiplicity of infection (MOI) of 5 or uninfected. Cells were washed twice, followed by 1 hour of antibiotic treatment with 200 μg/ml of amikacin to remove extracellular bacteria. After the antibiotic step, cells were washed once more and BisEDT (BIZ) or amikacin was added once to selected wells (see in vitro doses below).
(§3) The treatments included: vehicle, amikacin, Soluble BisEDT (S Biz), Insoluble BisEDT (I Biz), and amikacin+BisEDT. The time points for sample preparation were 72 h for M. abscessus strains and 4- and 7-days post infection for M. avium strains. At the indicated timepoints cell media was removed and replaced with 400 ul of 0.1% triton x-100 in H2O for lysis. Wells were pipetted 25 times to disrupt cells then diluted and plated for CFU enumeration.

[4] = test system: M. abscessus cystic fibrosis patient strain 01715 in THP-1 macrophages; experiment: as above; type: cell-based; conditions: CF patient strain 01715; after 3 days; drugs at MIC
Method: as §2, §3

[5] = test system: M. abscessus strain 19977 in THP-1 macrophages; experiment: as above; type: cell-based; conditions: after 3 days, drugs at MIC
Method: as §2, §3

[6] = test system: M. avium strain 104 (MAH 104) in THP-1 macrophages; experiment: as above; type: cell-based; conditions: 4-day and 7-day, drugs at MIC
Method: as §2, §3

M. abscessus MABS2 = experiment: MIC (Table 8); type: cell-based; conditions: Mycobacteroides abscessus
M. abscessus MABS9 = experiment: MIC (Table 8); type: cell-based; conditions: Mycobacteroides abscessus
[7] = test system: M. abscessus MABS1 biofilm; experiment: MBEC assay (minimum biofilm eradication concentration); type: cell-based; conditions: 18 h challenge
Text: (§4) In this study the MBEC assay was followed as described in the Innovotech Procedural Manual, version 2.1 with minor modifications to assess the antibiofilm activity of the antimicrobial compounds under investigation. The MBEC value refers to the Minimum Biofilm Eradication Concentration of each antimicrobial for each strain. The MBEC value is defined as the minimum antibiotic concentration where the optical density (OD) value at recovery is less than 10% of the control OD value and there is no growth observed with visual examination of the wells.
(§5) Step 1: Inoculation. For resuscitation, all strains were streaked on TSA plates, except for the mycobacteria which were streaked on 7H10 media, from the frozen stocks, and grew overnight at 37° C. (Table 6). From the plate, one colony was picked for inoculation in organism specific medium (OSM) and grown in a shaker incubator at 37° C. at 225 RPM until mid-log phase (OD 0.2-0.8). At mid log phase the culture was diluted in OSM medium (Table 6) to an OD of 0.05. 150 μL of it were aliquoted in each corresponding well in a 96-well MBEC plate (inoculation plate). Subsequently, the MBEC plates were incubated static at 37° C. for the appropriate time for each species (Table 7). During incubation, biofilm formed on the pegs.
(§6) Step 2: Challenge. Following incubation, the peg lid with the biofilm was washed twice in PBS and placed on a second 96-well plate with 200 μl of antibiotic dilutions (challenge plate). The challenge plate was then incubated at 37° C. for 18 h to allow exposure of the biofilm to antibiotics.
(§7) Step 3: Recovery. In the final step, the peg lid (with the biofilm after treatment with the antibiotics) was washed again twice in PBS and placed on a third 96-well plate (recovery plate) with 200 μl growth medium in each well to allow growth of any bacterial cells resistant to antibiotics at any concentration. The recovery of resistant cells was assessed by an end-point measurement of the optical density at 600 nm (OD600) for each well with a plate reader (FIG. 4).

[8] = test system: M. abscessus MABS11 biofilm; experiment: as above; type: cell-based; conditions: 18 h challenge
Text: as §4, §5, §6, §7

[9] = test system: M. abscessus MABS2 biofilm; experiment: as above; type: cell-based; conditions: 18 h challenge
Text: as §4, §5, §6, §7

[10] = test system: M. abscessus MABS4 biofilm; experiment: as above; type: cell-based; conditions: 18 h challenge
Text: as §4, §5, §6, §7

[11] = test system: M. abscessus MABS7 biofilm; experiment: as above; type: cell-based; conditions: 18 h challenge
Text: as §4, §5, §6, §7

[12] = test system: M. abscessus MABS9 biofilm; experiment: as above; type: cell-based; conditions: 18 h challenge
Text: as §4, §5, §6, §7

NCC[C@H](O)C(=O)N[C@@H]1C[C@H](N)[C@@H](O[C@H]2O[C@H](CN)[C@@H](O)[C@H](O)[C@H]2O)[C@H](O)[C@H]1O[C@H]1O[C@H](CO)[C@@H](O)[C@H](N)[C@H]1O [amikacin]
Sensitivity phenotype (R/I/S) ([1]; 1 μg/mL): R | Sensitivity phenotype (R/I/S) ([1]; 2 μg/mL): R | Sensitivity phenotype (R/I/S) ([1]; 4 μg/mL): R | Sensitivity phenotype (R/I/S) ([1]; 8 μg/mL): R | Sensitivity phenotype (R/I/S) ([1]; 16 μg/mL): I | Sensitivity phenotype (R/I/S) ([1]; 32 μg/mL): I | Sensitivity phenotype (R/I/S) ([1]; 64 μg/mL): S | Sensitivity phenotype (R/I/S) ([1]; 128 μg/mL): S | MIC ([1]; M. abscessus strain 00703 (Table 4), read-out: MIC determined for the strain, used for treatment of infected macrophages): 64 µg/mL (≈ 109 µM) | MIC ([1]; M. abscessus strain from patient 00703, read-out: MIC): 64 µg/mL (≈ 109 µM) | Sensitivity phenotype (R/I/S) ([2]; 1 μg/mL): R | Sensitivity phenotype (R/I/S) ([2]; 2 μg/mL): R | Sensitivity phenotype (R/I/S) ([2]; 4 μg/mL): R | Sensitivity phenotype (R/I/S) ([2]; 8 μg/mL): I | Sensitivity phenotype (R/I/S) ([2]; 16 μg/mL): S | Sensitivity phenotype (R/I/S) ([2]; 32 μg/mL): S | Sensitivity phenotype (R/I/S) ([2]; 64 μg/mL): S | Sensitivity phenotype (R/I/S) ([2]; 128 μg/mL): S | MIC ([2]; M. abscessus strain 01715 (Table 4), read-out: MIC determined for the strain, used for treatment of infected macrophages): 16 µg/mL (≈ 27.3 µM) | MIC ([2]; M. abscessus strain from patient 01715, read-out: MIC): 16 µg/mL (≈ 27.3 µM) | mycobacterial survival (CFU, bacterial load) in THP-1 macrophages, in words [3]: bacteriostatic | mycobacterial survival (CFU, bacterial load) in THP-1 macrophages, in words [4]: bacteriostatic | mycobacterial survival (CFU, bacterial load) in THP-1 macrophages, in words [5]: somewhat reduced CFU counts from initial infection rates, but the difference was not significant | mycobacterial survival (CFU, bacterial load) in THP-1 macrophages, in words [6]: greatly reduced the bacteria load | MIC (M. abscessus MABS2): 32 µg/mL (≈ 54.6 µM) | MIC (M. abscessus MABS9): 8 µg/mL (≈ 13.7 µM) | MBEC [7]: >128 µg/mL | MBEC [8]: >16 µg/mL | MBEC [9]: >512 µg/mL | MBEC [10]: 8 µg/mL | MBEC ([10]; listed as Amikacin): <8 µg/mL | MBEC [11]: >16 µg/mL | MBEC [12]: >64 µg/mL
